Experiments:
[1] = system: ACHN; assay: Growth inhibition of human ACHN cells after 48 hrs by sulforhodamine B protein assay; assay type: functional
[2] = system: DU-145; assay: Growth inhibition of human DU145 cells after 48 hrs by sulforhodamine B protein assay; assay type: functional; settings: DU-145, 48 h
[3] = system: MCF7; assay: Growth inhibition of human MCF7 cells after 48 hrs by sulforhodamine B protein assay; assay type: functional; settings: MCF7, 48 h
[4] = system: MDA-MB-468; assay: Growth inhibition of human MDA-MB-468 cells after 48 hrs by sulforhodamine B protein assay; assay type: functional; settings: MDA-MB-468, 48 h
[5] = system: HT-29; assay: Growth inhibition of human HT-29 cells after 48 hrs by sulforhodamine B protein assay; assay type: functional; settings: HT-29, 48 h
[6] = system: HOP-62; assay: Growth inhibition of human HOP62 cells after 48 hrs by sulforhodamine B protein assay; assay type: functional; settings: HOP-62, 48 h
[7] = system: COLO 205; assay: Growth inhibition of human COLO205 cells after 48 hrs by sulforhodamine B protein assay; assay type: functional; settings: COLO 205, 48 h
[8] = system: NCI/ADR-RES; assay: Growth inhibition of human NCI/ADR-RES cells after 48 hrs by sulforhodamine B protein assay; assay type: functional
[9] = system: MDA-MB-435; assay: Growth inhibition of human MDA-MB-435 cells after 48 hrs by sulforhodamine B protein assay; assay type: functional; settings: MDA-MB-435, 48 h
[10] = system: MDA-MB-231; assay: Growth inhibition of human MDA-MB-231 cells after 48 hrs by sulforhodamine B protein assay; assay type: functional; settings: MDA-MB-231, 48 h
[11] = system: Malme-3M; assay: Growth inhibition of human MALME-3M cells after 48 hrs by sulforhodamine B protein assay; assay type: functional
[12] = system: SK-MEL-2; assay: Growth inhibition of human SK-MEL-2 cells after 48 hrs by sulforhodamine B protein assay; assay type: functional; settings: SK-MEL-2, 48 h
[13] = system: U-251; assay: Growth inhibition of human U251 cells after 48 hrs by sulforhodamine B protein assay; assay type: functional; settings: U-251, 48 h
[14] = system: SW-620; assay: Growth inhibition of human SW620 cells after 48 hrs by sulforhodamine B protein assay; assay type: functional; settings: SW-620, 48 h
[15] = molecular target: T1, Type II restriction enzyme BamHI (Bacillus amyloliquefaciens) (UniProt P23940); assay: Inhibition of Bacillus amyloliquefaciens BamH1-mediated pBR322 cleavage after 16 hrs by RED100-restriction endonuclease digestion assay
T1 sequence (whole entry): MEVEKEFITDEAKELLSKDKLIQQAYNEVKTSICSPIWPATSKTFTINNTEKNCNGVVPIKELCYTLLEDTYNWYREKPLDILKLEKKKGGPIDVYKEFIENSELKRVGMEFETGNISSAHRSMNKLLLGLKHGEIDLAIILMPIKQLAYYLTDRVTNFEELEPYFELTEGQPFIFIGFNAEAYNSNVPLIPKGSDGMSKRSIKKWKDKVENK

[16] = system: OVCAR-3; assay: Growth inhibition of human OVCAR-3 cells after 48 hrs by sulforhodamine B protein assay; assay type: functional; settings: OVCAR-3, 48 h
[17] = system: NCI-H460; assay: Growth inhibition of human NCI-H460 cells after 48 hrs by sulforhodamine B protein assay; assay type: functional; settings: NCI-H460, 48 h
[18] = system: SK-MEL-28; assay: Growth inhibition of human SK-MEL-28 cells after 48 hrs by sulforhodamine B protein assay; assay type: functional; settings: SK-MEL-28, 48 h
[19] = system: OVCAR-5; assay: Growth inhibition of human OVCAR5 cells after 48 hrs by sulforhodamine B protein assay; assay type: functional; settings: OVCAR-5, 48 h
[20] = system: HCC 2998; assay: Growth inhibition of human HCC2998 cells after 48 hrs by sulforhodamine B protein assay; assay type: functional; settings: HCC 2998, 48 h
[21] = system: NCI-H322M; assay: Growth inhibition of human NCI-H322M cells after 48 hrs by sulforhodamine B protein assay; assay type: functional
[22] = system: RXF 393; assay: Growth inhibition of human […] cells after 48 hrs by sulforhodamine B protein assay; assay type: functional; settings: RXF 393, 48 h
[23] = system: UACC-62; assay: Growth inhibition of human UACC62 cells after 48 hrs by sulforhodamine B protein assay; assay type: functional; settings: UACC-62, 48 h
[24] = system: OVCAR-8; assay: Growth inhibition of human OVCAR8 cells after 48 hrs by sulforhodamine B protein assay; assay type: functional; settings: OVCAR-8, 48 h
[25] = system: SF-539; assay: Growth inhibition of human SF539 cells after 48 hrs by sulforhodamine B protein assay; assay type: functional; settings: SF-539, 48 h
[26] = system: SN12C; assay: Growth inhibition of human SN12C cells after 48 hrs by sulforhodamine B protein assay; assay type: functional
[27] = system: T47D; assay: Growth inhibition of human T47D cells after 48 hrs by sulforhodamine B protein assay; assay type: functional
[28] = system: UACC-257; assay: Growth inhibition of human UACC257 cells after 48 hrs by sulforhodamine B protein assay; assay type: functional; settings: UACC-257, 48 h
[29] = system: NCI-H226; assay: Growth inhibition of human NCI-H226 cells after 48 hrs by sulforhodamine B protein assay; assay type: functional; settings: NCI-H226, 48 h
[30] = system: 786-0; assay: Growth inhibition of human 786-0 cells after 48 hrs by sulforhodamine B protein assay; assay type: functional; settings: 786-0, 48 h
[31] = Growth inhibition of human Hs 578T cells after 48 hrs by sulforhodamine B protein assay; assay type: functional
[32] = system: NCI-H23; assay: Growth inhibition of human NCI-H23 cells after 48 hrs by sulforhodamine B protein assay; assay type: functional; settings: NCI-H23, 48 h
[33] = system: CCRF-CEM; assay: Growth inhibition of human CCRF-CEM cells after 48 hrs by sulforhodamine B protein assay; assay type: functional
[34] = system: MOLT-4; assay: Growth inhibition of human MOLT4 cells after 48 hrs by sulforhodamine B protein assay; assay type: functional; settings: MOLT-4, 48 h
[35] = system: A498; assay: Growth inhibition of human A498 cells after 48 hrs by sulforhodamine B protein assay; assay type: functional; settings: A498, 48 h
[36] = system: DNA; assay: Binding affinity to calf thymus DNA assessed as change in melting temperature at a compound to DNA molar ratio of 1:5 at pH 7 by thermal denaturation assay; assay type: nucleic-acid assay; settings: Bos taurus
[37] = system: HOP-92; assay: Growth inhibition of human HOP92 cells after 48 hrs by sulforhodamine B protein assay; assay type: functional; settings: HOP-92, 48 h
[38] = system: HL-60(TB); assay: Growth inhibition of human HL-60(TB) cells after 48 hrs by sulforhodamine B protein assay; assay type: functional; settings: HL-60, 48 h
[39] = system: SR; assay: Growth inhibition of human SR cells after 48 hrs by sulforhodamine B protein assay; assay type: functional
[40] = system: SK-OV-3; assay: Growth inhibition of human SKOV3 cells after 48 hrs by sulforhodamine B protein assay; assay type: functional; settings: SK-OV-3, 48 h
[41] = system: M14; assay: Growth inhibition of human M14 cells after 48 hrs by sulforhodamine B protein assay; assay type: functional; settings: M14, 48 h
[42] = system: OVCAR-4; assay: Growth inhibition of human OVCAR4 cells after 48 hrs by sulforhodamine B protein assay; assay type: functional; settings: OVCAR-4, 48 h
[43] = system: TK-10; assay: Growth inhibition of human TK10 cells after 48 hrs by sulforhodamine B protein assay; assay type: functional; settings: TK-10, 48 h
[44] = system: A549; assay: Growth inhibition of human A549 cells after 48 hrs by sulforhodamine B protein assay; assay type: functional; settings: A549, 48 h

Which GI50 [1] does the source give for `COc1cc2c(cc1OCCCN1CCN(CCCOc3cc4c(cc3OC)C(=O)N3CC(F)C[C@H]3C=N4)CC1)N=C[C@@H]1CC(F)CN1C2=O` (some centres undefined) here?
Its GI50 is 150 nM.

And the GI50 [2]?
Its GI50 is 40 nM.

And the GI50 [3]?
The GI50 was under 10 nM.

And the GI50 [4]?
The GI50 was under 10 nM.

And the GI50 [5]?
The GI50 was 170 nM.

And the GI50 [6]?
The GI50 was under 10 nM.

And the GI50 [7]?
The GI50 was under 40 nM.

And the GI50 [8]?
The GI50 was 5250 nM.

What about the GI50 [9] of the same compound?
The GI50 was under 30 nM.

What about the GI50 [10] of the same compound?
Its GI50 is 130 nM.

What about the GI50 [11] of the same compound?
The GI50 was under 20 nM.

What about the GI50 [12] of the same compound?
Its GI50 is 500 nM.

What about the GI50 [13] of the same compound?
Its GI50 is under 10 nM.

And the GI50 [14]?
Its GI50 is under 50 nM.

What about the Activity [15] of the same compound?
The Activity was “Dose-dependent effect”.

And the GI50 [16]?
Its GI50 is under 40 nM.

And the GI50 [17]?
The GI50 was under 10 nM.

And the GI50 [18]?
Its GI50 is under 30 nM.

What about the GI50 [19] of the same compound?
Its GI50 is 160 nM.

And the GI50 [20]?
The GI50 was 110 nM.

What about the GI50 [21] of the same compound?
Its GI50 is 260 nM.

What about the GI50 [22] of the same compound?
The GI50 was 110 nM.

What about the GI50 [23] of the same compound?
The GI50 was under 80 nM.

And the GI50 [24]?
The GI50 was 100 nM.

What about the GI50 [25] of the same compound?
Its GI50 is under 10 nM.

What about the GI50 [26] of the same compound?
Its GI50 is under 10 nM.

And the GI50 [27]?
Its GI50 is under 10 nM.

What about the GI50 [28] of the same compound?
Its GI50 is 1270 nM.

What about the GI50 [29] of the same compound?
The GI50 was 100 nM.

And the GI50 [30]?
The GI50 was under 30 nM.

What about the GI50 [31] of the same compound?
The GI50 was under 40 nM.

And the GI50 [32]?
The GI50 was under 30 nM.

And the GI50 [33]?
The GI50 was under 10 nM.

And the GI50 [34]?
The GI50 was under 10 nM.

And the GI50 [35]?
The GI50 was under 60 nM.

What about the ΔTm [36] of the same compound?
The ΔTm was 37 °C.

What about the GI50 [37] of the same compound?
The GI50 was under 90 nM.

What about the GI50 [38] of the same compound?
The GI50 was under 10 nM.

What about the GI50 [39] of the same compound?
The GI50 was under 10 nM.

And the GI50 [40]?
The GI50 was under 70 nM.

What about the GI50 [41] of the same compound?
The GI50 was under 30 nM.

What about the GI50 [42] of the same compound?
The GI50 was 460 nM.

And the GI50 [43]?
The GI50 was 250 nM.

What about the GI50 [44] of the same compound?
The GI50 was 120 nM.
